Measurements: patent US20240352016A1, “A CYCLIN-DEPENDENT KINASE INHIBITOR” (TAIZHOU EOC PHARMA CO., LTD., priority 2021, published 2024)
pIC50: −log10 of the molar value. Structures can show the parent of a compound that is named as a salt. Where two headings read alike, the source gives them in different places.

Assays:
CDK7/Cyclin H/MAT1 = target: T1, CDK7/Cyclin H/MAT1 (Homo sapiens, UniProt P50613); assay: CDK kinase activity mobility shift assay (MSA); type: biochemical
T1 construct: made in house; host or cells: insect cell
T1 sequence (P50613 whole entry): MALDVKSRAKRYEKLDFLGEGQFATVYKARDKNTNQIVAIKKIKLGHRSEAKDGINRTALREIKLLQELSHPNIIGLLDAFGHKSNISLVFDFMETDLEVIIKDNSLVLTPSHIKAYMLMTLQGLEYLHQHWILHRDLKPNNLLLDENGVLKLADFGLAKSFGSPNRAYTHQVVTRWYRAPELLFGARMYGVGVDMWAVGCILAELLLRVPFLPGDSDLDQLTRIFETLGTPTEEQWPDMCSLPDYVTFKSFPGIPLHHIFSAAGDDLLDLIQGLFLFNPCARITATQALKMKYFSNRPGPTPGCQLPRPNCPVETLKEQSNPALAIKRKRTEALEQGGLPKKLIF
T1 sequence (P51946 whole entry partner): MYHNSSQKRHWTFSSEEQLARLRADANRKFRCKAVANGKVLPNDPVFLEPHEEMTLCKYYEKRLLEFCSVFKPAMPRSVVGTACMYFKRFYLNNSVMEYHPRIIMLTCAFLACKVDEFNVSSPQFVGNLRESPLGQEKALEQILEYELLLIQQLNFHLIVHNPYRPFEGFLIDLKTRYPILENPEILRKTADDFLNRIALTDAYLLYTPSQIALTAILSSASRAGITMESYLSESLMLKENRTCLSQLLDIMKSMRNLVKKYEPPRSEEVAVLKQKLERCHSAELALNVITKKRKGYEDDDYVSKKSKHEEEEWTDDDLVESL
T1 sequence (P51948 whole entry partner): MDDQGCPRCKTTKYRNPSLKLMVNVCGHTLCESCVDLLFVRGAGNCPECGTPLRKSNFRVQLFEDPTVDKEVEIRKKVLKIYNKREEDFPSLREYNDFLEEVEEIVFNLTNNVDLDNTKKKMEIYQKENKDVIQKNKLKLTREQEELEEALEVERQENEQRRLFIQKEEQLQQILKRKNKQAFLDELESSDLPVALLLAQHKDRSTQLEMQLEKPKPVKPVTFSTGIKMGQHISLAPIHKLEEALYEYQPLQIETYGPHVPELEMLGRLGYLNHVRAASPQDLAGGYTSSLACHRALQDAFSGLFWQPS
Description: Human CDKs, cyclins and other partner proteins were expressed in insect cell, purified individually, reconstituted and then purified to homogeneity before being used for kinase activity assay.
Kinase activity of CDKs were determined by mobility shift assay (MSA), in which the formation of a phosphorylated fluorescence-labelled peptide in reaction mixture was monitored through capillary electrophoresis in a microfluidic environment. […] The mixtures were incubated at 27° C. for 40 min before being quenched with 4 μl 80 mM EDTA, then read on a LabChip EZ Reader II (Caliper Life Science). IC50 of compound for CDKs was calculated by Prism (GraphPad) using a four-parameter nonlinear curve fit.

HCC70 = assay: Inhibition of cell proliferation (CyQuant), HCC70; type: cell-based; settings: Homo sapiens; HCC70 breast cancer cell line, 120 hour, CyQuant assay kit
Description: (§1) Exemplary compounds of the invention were tested at different concentrations (from 10 μM to 610 pM; 4-fold serial dilutions) for their ability to inhibit the proliferation of various cancer cell lines. Known kinase inhibitor staurosporine were used as positive controls. Cells were grown in the indicated media listed below. All cell lines were supplemented with FBS (Life Technologies) and 100 U-mL^−1 penicillin, 100 μg·mL^−1 streptomycin (Invitrogen) and cultured at 37° C. in a humidified chamber in the presence of 5% CO2. Proliferation assays were conducted over a 120 hour time period. CyQuant assay kit (ThermoFisher) was used to assess the anti-proliferative effects of the compounds following manufacturer's directions.
(§2) The following cancer cell lines may be tested with the exemplary media conditions indicated:
(§3) Exemplary results of these assays are set forth in Tables 3, where “A” represents an IC50 value of less than 0.2 μM; “B” represents an IC50 value of between 0.2 μM and 5 μM, inclusive; and “C” represents an IC50 value of greater than 5 μM. “NT” represents that the specified compound was not tested in the specified assay.

OVCAR3 = assay: Inhibition of cell proliferation (CyQuant), OVCAR3; type: cell-based; settings: Homo sapiens, OVCAR-3; OVCAR3 ovarian cancer cell line, 120 hour, CyQuant assay kit
Description: as §1, §2
• OVCAR3: RPMI 1640+0.01 mg/mi bovine insulin+20% FBS+1% Glutamax
as §3

[1] = The CDK may be CDK7, mobility shift assay, 2 mM ATP, 3 nM CDK/Cyclin, 27° C. for 40 min, read-out: IC50 (CDK inhibition)

| pIC50 (CDK7/Cyclin H/MAT1; [1]) | pIC50 (OVCAR3) | SMILES | pIC50 (HCC70) | pIC50 (CDK7/Cyclin H/MAT1) |
| --- | --- | --- | --- | --- |
| > 7.00 | 5.30 to 6.70 | CC(C)n1cnc2c(NCc3ccccc3-n3ccc(C(=O)N4CCN(CCO)CC4)n3)nc(N3CCC(N)CC3)nc21 [Compound I-2, (1-(2-(((2-(4-aminopiperidin-1-yl)-9-isopropyl-9H-purin-6-yl)amino)methyl)phenyl)-1H-pyrazol-3-yl)(4-(2-hydroxyethyl)piperazin-1-yl)methanone] | 5.30 to 6.70 | – |
| > 7.00 | 5.30 to 6.70 | CC(C)n1cnc2c(NCc3ccccc3-n3ccc(C(=O)N4CCN(C)CC4)n3)nc(N3CCC(N)CC3)nc21 [Compound I-3, (1-(2-(((2-(4-aminopiperidin-1-yl)-9-isopropyl-9H-purin-6-yl)amino)methyl)phenyl)-1H-pyrazol-3-yl)(4-methylpiperazin-1-yl)methanone] | 5.30 to 6.70 | – |
| > 7.00 | > 6.70 | CC(C)N1CCN(c2ccn(-c3ccccc3CNc3nc(N4CCC(N)CC4)nc4c3ncn4C(C)C)n2)CC1 [Compound I-4, 2-(4-aminopiperidin-1-yl)-9-isopropyl-N-(2-(3-(4-isopropylpiperazin-1-yl)-1H-pyrazol-1-yl)benzyl)-9H-purin-6-amine hydrochloride] | > 6.70 | – |
| > 7.00 | > 6.70 | CC(C)n1nccc1-c1ncccc1CNc1nc(N2CCC(N)CC2)nc2c1ncn2C(C)C [Compound I-6, 2-(4-aminopiperidin-1-yl)-9-isopropyl-N-((2-(1-isopropyl-1H-pyrazol-5-yl)pyridin-3-yl)methyl)-9H-purin-6-amine] | > 6.70 | – |
| > 7.00 | 5.30 to 6.70 | CCn1cnc2c(NCc3ccccc3-n3cccn3)nc(N3CCC(N)CC3)nc21 [Compound I-7, N-(2-(1H-pyrazol-1-yl)benzyl)-2-(4-aminopiperidin-1-yl)-9-ethyl-9H-purin-6-amine hydrochloride] | 5.30 to 6.70 | – |
| > 7.00 | > 6.70 | CC(C)n1cnc2c(NCc3ccccc3-c3cnn(C)c3)nc(N3CCC(N)CC3)nc21 [Compound I-8, 2-(4-aminopiperidin-1-yl)-9-isopropyl-N-(2-(1-methyl-1H-pyrazol-4-yl)benzyl)-9H-purin-6-amine] | 5.30 to 6.70 | – |
| > 7.00 | 5.30 to 6.70 | CC(C)n1cnc2c(NCc3ccccc3-n3cccn3)nc(N3CCC[C@H](N)C3)nc21 [Compound I-10, (S)—N-(2-(1H-pyrazol-1-yl)benzyl)-2-(3-aminopiperidin-1-yl)-9-isopropyl-9H-purin-6-amine] | 5.30 to 6.70 | – |
| > 7.00 | > 6.70 | CC(C)n1cnc2c(NCc3ccccc3-c3ccnn3C)nc(N3CCC(N)CC3)nc21 [Compound I-12, 2-(4-aminopiperidin-1-yl)-9-isopropyl-N-(2-(1-methyl-1H-pyrazol-5-yl)benzyl)-9H-purin-6-amine] | > 6.70 | – |
| > 7.00 | > 6.70 | CC(C)n1cnc2c(NCc3ccccc3-n3ccc(C(C)(C)O)n3)nc(N3CCC(N)CC3)nc21 [Compound I-16, 2-(1-(2-(((2-(4-aminopiperidin-1-yl)-9-isopropyl-9H-purin-6-yl)amino)methyl)phenyl)-1H-pyrazol-3-yl)propan-2-ol] | > 6.70 | – |
| > 7.00 | > 6.70 | CNC1CCN(c2nc(NCc3ccccc3-n3cccn3)c3ncn(C(C)C)c3n2)CC1 [Compound I-19, N-(2-(1H-pyrazol-1-yl)benzyl)-9-isopropyl-2-(4-(methylamino)piperidin-1-yl)-9H-purin-6-amine] | > 6.70 | – |
| > 7.00 | – | c1ccc(-n2cccn2)c(CNc2nc(N3CCNCC3)nc3c2ncn3C2CCCC2)c1 [Compound I-27, N-(2-(1H-pyrazol-1-yl)benzyl)-9-cyclopentyl-2-(piperazin-1-yl)-9H-purin-6-amine] | – | – |
| – | – | CC(C)n1cnc2c(NCc3ccccc3-n3cccn3)nc(N3CCNCC3)nc21 [Compound I-28, N-(2-(1H-pyrazol-1-yl)benzyl)-9-isopropyl-2-(piperazin-1-yl)-9H-purin-6-amine] | – | > 7.00 |
| 6.30 to 7.00 | – | CC(C)n1cnc2c(NCc3ccccc3-n3cccn3)nc(N3CCC(O)(CN(C)C)CC3)nc21 [Compound I-29, 1-(6-((2-(1H-pyrazol-1-yl)benzyl)amino)-9-isopropyl-9H-purin-2-yl)-4-((dimethylamino)methyl)piperidin-4-ol] | – | – |
| 6.30 to 7.00 | – | CC(C)n1cnc2c(NCc3ccccc3-n3cccn3)nc(NC3CCNCC3)nc21 [Compound I-30, N6-(2-(1H-pyrazol-1-yl)benzyl)-9-isopropyl-N2-(piperidin-4-yl)-9H-purine-2,6-diamine hydrochloride] | – | – |
| 6.30 to 7.00 | – | CC(C)n1cnc2c(NCc3ccccc3-n3cccn3)nc(N3CCC(O)(Cn4cc(N)cn4)CC3)nc21 [Compound I-31, 1-(6-((2-(1H-pyrazol-1-yl)benzyl)amino)-9-isopropyl-9H-purin-2-yl)-4-((4-amino-1H-pyrazol-1-yl)methyl)piperidin-4-ol] | – | – |
| 6.30 to 7.00 | – | CC(C)n1cnc2c(NCc3ccccc3-n3cccn3)nc(N3CCC(CN(C)C)CC3)nc21 [Compound I-32, N-(2-(1H-pyrazol-1-yl)benzyl)-2-(4-((dimethylamino)methyl)piperidin-1-yl)-9-isopropyl-9H-purin-6-amine] | – | – |
| 6.30 to 7.00 | – | CC(C)n1cnc2c(NCc3ccccc3-n3cccn3)nc(N3CCC(CN)C3)nc21 (centres unmarked) [Compound I-34, N-(2-(1H-pyrazol-1-yl)benzyl)-2-(3-(aminomethyl)pyrrolidin-1-yl)-9-isopropyl-9H-purin-6-amine] | – | – |
| < 6.00 | – | CC(C)n1cnc2c(NCc3ccccc3-n3cccn3)nc(N3CCC(O)(Cn4cc(C(F)(F)F)cn4)CC3)nc21 [Compound I-35, 1-(6-((2-(1H-pyrazol-1-yl)benzyl)amino)-9-isopropyl-9H-purin-2-yl)-4-((4-(trifluoromethyl)-1H-pyrazol-1-yl)methyl)piperidin-4-ol] | – | – |
| 6.30 to 7.00 | – | CC(C)n1cnc2c(NCc3ccccc3-n3cccn3)nc(N3CCC(N)C3)nc21 (centres unmarked) [Compound I-36, N-(2-(1H-pyrazol-1-yl)benzyl)-2-(3-aminopyrrolidin-1-yl)-9-isopropyl-9H-purin-6-amine] | – | – |
| 6.30 to 7.00 | – | CC(C)n1cnc2c(NCc3ccccc3-n3cccn3)nc(N3CCC(O)CC3)nc21 [Compound I-37, 1-(6-((2-(1H-pyrazol-1-yl)benzyl)amino)-9-isopropyl-9H-purin-2-yl)piperidin-4-ol] | – | – |
| 6.30 to 7.00 | – | CC(C)n1cnc2c(NCc3ccccc3-n3cccn3)nc(N3CCC(C(N)=O)CC3)nc21 [Compound I-38, 1-(6-((2-(1H-pyrazol-1-yl)benzyl)amino)-9-isopropyl-9H-purin-2-yl)piperidine-4-carboxamide] | – | – |
| 6.00 to 6.30 | – | CC(C)n1cnc2c(NCc3ccccc3-n3cccn3)nc(N[C@H]3CC[C@H](O)CC3)nc21 [Compound I-39, (1R,4R)-4-((6-((2-(1H-pyrazol-1-yl)benzyl)amino)-9-isopropyl-9H-purin-2-yl)amino)cyclohexan-1-ol] | – | – |
| 6.00 to 6.30 | – | CC(C)n1cnc2c(NCc3ccccc3-n3cccn3)nc(N3CCC(CO)CC3)nc21 [Compound I-40, (1-(6-((2-(1H-pyrazol-1-yl)benzyl)amino)-9-isopropyl-9H-purin-2-yl)piperidin-4-yl)methanol] | – | – |
| 6.30 to 7.00 | – | CC(C)n1cnc2c(NCc3ccccc3-n3cccn3)nc(N3CCC(CN)CC3)nc21 [Compound I-41, N-(2-(1H-pyrazol-1-yl)benzyl)-2-(4-(aminomethyl)piperidin-1-yl)-9-isopropyl-9H-purin-6-amine] | – | – |
| > 7.00 | – | CC(C)c1n[nH]c2c(NCc3ccccc3-n3cccn3)nc(N3CCC(N)CC3)nc12 [II-1, N-(2-(1H-pyrazol-1-yl)benzyl)-5-(4-aminopiperidin-1-yl)-3-isopropyl-1H-pyrazolo[4,3-d]pyrimidin-7-amine hydrochloride] | – | – |
| > 7.00 | – | CC(C)c1n[nH]c2c(NCc3ccccc3-n3cccn3)nc(NC3CCNCC3)nc12 [II-2, N7-(2-(1H-pyrazol-1-yl)benzyl)-3-isopropyl-N5-(piperidin-4-yl)-1H-pyrazolo[4,3-d]pyrimidine-5,7-diamine] | – | – |

| SMILES | pIC50 (CDK7/Cyclin H/MAT1; [1]) | pIC50 (OVCAR3) | pIC50 (HCC70) | pIC50 (CDK7/Cyclin H/MAT1) |
| --- | --- | --- | --- | --- |
| CC(C)n1cnc2c(NCc3ccccc3-n3cccn3)nc(NC3CN4CCC3CC4)nc21 (centres unmarked) [Compound I-33, N6-(2-(1H-pyrazol-1-yl)benzyl)-9-isopropyl-N2-(quinuclidin-3-yl)-9H-purine-2,6-diamine] | 6.30 to 7.00 | – | – | – |
